Experimental data as given in patent US9604989B2, “Imidazopyridazines as Akt kinase inhibitors” (Bayer Intellectual Property GmbH, priority 2011, dated 2017).
Counter-ions that a name gives are not always drawn.

Columns and labels:
[1] = system: KPL-4 breast cancer cell line; experiment: Tumor cell proliferation assay (CellTiter-Glo), KPL-4; assay type: cell-based; conditions: Homo sapiens, KPL4, 72 h drug exposure, read-out: KLP-4 median IC50
Method: (§1) Biological Assay 4.0: Tumor Cell Proliferation Assays
(§2) Compounds were tested in a cell-based assay that measures the capacity of the compounds to inhibit tumour cell proliferation following a 72 h drug exposure. Cell viability is determined using CellTiter-Glow® (CTG, Promega, cat#G7571/2/3). The CellTiter-Glo® Luminescent Cell Viability Assay is a homogeneous method to determine the number of viable cells in culture.
(§3) Detection is based on using the luciferase reaction to measure the amount of ATP from viable cells. The amount of ATP in cells correlates with cell viability. Within minutes after a loss of membrane integrity, cells lose the ability to synthesize ATP, and endogenous ATPases destroy any remaining ATP; thus the levels of ATP fall precipitously.
(§4) For each cell line assayed, cells were plated onto a separate plate for determination of fluorescence at t=0 hour and t=72 hour time points. Following overnight incubation at 37° C., chemiluminescence values for the t=0 samples were determined after adding 10 μl medium and 100 μl CTG solution according to manufacture protocol. Plates for the t=72 hour time points were treated with compounds diluted into growth medium at ten times final concentration added in 10 μL to the cell culture plate. Cells were then incubated for 72 hours at 37° C. Chemiluminescence values for the t=72 hour samples were determined. […] Experiments were controlled using a reference compound as standard.

[2] = system: MCF-7 breast tumour cell line; experiment: Tumor cell proliferation assay (CellTiter-Glo), MCF-7; assay type: cell-based; conditions: Homo sapiens, MCF7, 72 h drug exposure, read-out: MCF-7 median IC50
Method: as §1, §2, §3, §4

phospho-AKT at S473 = experiment: Cellular p-AKT1/2/3-S473 assay in KPL-4 cells; assay type: cell-based; conditions: Homo sapiens, KPL4; KPL-4 breast tumour cell line, compound treatment 2 hours; read-out: pAKT-S473 median IC50
Method: (§5) The molecular mechanism of action was investigated in a set of experiments to assess the inhibition of the PI3K-AKT-mTOR pathway in responsive cell lines such as KPL-4 breast tumour cell line (PIK3CA^H1047R, HER2^O/E and hormone independent). The phospho-substrates of PI3K-AKT-mTOR axis were used as the read-outs to reflect pathway inhibition. Cells were seeded at 60-80% confluency per well in 96-well cell culture plates. After overnight incubation at 37° C. 5% CO2, cells were treated with compounds and vehicle at 37° C. for 2 hours. […] All measurements where at least done in duplicates and confirmed by independent repetition.
Alternatively pAKT-S473 was measured using the “Akt Duplex” of the MULTI-SPOT® Assay System (Fa. Meso Scale Discovery, Cat#N41100B-1) following manufacturers instructions. Each assay used 20 μg of protein extract and measured total AKT and p-AKT content simultaneously in one well. All measurements where at least done in duplicates and confirmed by independent repetition. Values for P-AKT are expressed as percentage of P-AKT level compared to total-AKT content of the extracts.

p-4E-BP1 at T70 = experiment: Cellular p-4E-BP1-T70 assay in KPL-4 cells; assay type: cell-based; conditions: Homo sapiens, KPL4; KPL-4 breast tumour cell line, compound treatment 2 hours; read-out: P4EBP1-T70 median IC50
Method: as §5

[3] = target: His-tagged human recombinant kinase full-length Akt2 (Homo sapiens (Human), UniProt P31751); experiment: Akt2 kinase assay (Akt2 TR-FRET assay); assay type: biochemical; conditions: 10 μM ATP, 60 min at 22° C., read-out: Akt2 median IC50
From the text: Akt2 inhibitory activity of compounds of the present invention was quantified employing the Akt2 TR-FRET assay as described in the following paragraphs.
His-tagged human recombinant kinase full-length Akt2 expressed in insect cells and activated by PDK1 was purchased form Invitrogen (part number PV 3975). As substrate for the kinase reaction the biotinylated peptide biotin-Ahx-[sequence] (C-terminus in amide form) was used which can be purchased e.g. from the company Biosynthan GmbH (Berlin-Buch, Germany). For the assay 50 nl of a 100 fold concentrated solution of the test compound in DMSO was pipetted into a black low volume 384 well microtiter plate (Greiner Bio-One, Frickenhausen, Germany), 2 μl of a solution of Akt2 in assay buffer [50 mM TRIS/HCl pH 7.5, 5 mM MgCl2, 1 mM dithiothreitol, 0.02% (v/v) Triton X-100 (Sigma)] were added and the mixture was incubated for 15 min at 22° C. to allow pre-binding of the test compounds to the enzyme before the start of the kinase reaction. Then the kinase reaction was started by the addition of 3 μl of a solution of adenosine-tri-phosphate (ATP, 16.7 μM=>final conc. in the 5 μl assay volume is 10 μM) and substrate (1.67 μM=>final conc. in the 5 μl assay volume is 1 μM) in assay buffer and the resulting mixture was incubated for a reaction time of 60 min at 22° C. The concentration of Akt2 in the assay was adjusted depending of the activity of the enzyme lot and was chosen appropriate to have the assay in the linear range, typical enzyme concentrations were in the range of about 0.2 ng/μl (final conc. in the 5 μl assay volume). The reaction was stopped by the addition of 5 μl of a solution of HTRF detection reagents (200 nM streptavidine-XL665 [Cisbio] and 1.5 nM anti-phosho-Serine antibody [Millipore, cat. #35-001] and 0.75 nM LANCE Eu-W 1024 labeled anti-mouse IgG antibody [Perkin Elmer]) in an aqueous EDTA-solution (100 mM EDTA, 0.1% (w/v) bovine serum albumin in 50 mM HEPES/NaOH pH 7.5). The resulting mixture was incubated 1 h at 22° C. to allow the binding of the biotinylated phosphorylated peptide to the streptavidine-XL665 and the antibodies. Subsequently the amount of phosphorylated substrate was evaluated by measurement of the resonance energy transfer from the anti-mouse-IgG-Eu-Chelate to the streptavidine-XL665. Therefore, the fluorescence emissions at 620 nm and 665 nm after excitation at 350 nm was measured in a TR-FRET reader, e.g. a Rubystar (BMG Labtechnologies, Offenburg, Germany) or a Viewlux (Perkin-Elmer). The ratio of the emissions at 665 nm and at 622 nm was taken as the measure for the amount of phosphorylated substrate.

[4] = target: His-tagged human recombinant kinase full-length Akt1 (Homo sapiens (Human), UniProt P31749); experiment: Akt1 kinase assay (Akt1 TR-FRET assay); assay type: biochemical; conditions: 10 μM ATP, 60 min at 22° C., read-out: Akt1 median IC50
His-tagged human recombinant kinase full-length Akt1, sequence (P31749 whole entry): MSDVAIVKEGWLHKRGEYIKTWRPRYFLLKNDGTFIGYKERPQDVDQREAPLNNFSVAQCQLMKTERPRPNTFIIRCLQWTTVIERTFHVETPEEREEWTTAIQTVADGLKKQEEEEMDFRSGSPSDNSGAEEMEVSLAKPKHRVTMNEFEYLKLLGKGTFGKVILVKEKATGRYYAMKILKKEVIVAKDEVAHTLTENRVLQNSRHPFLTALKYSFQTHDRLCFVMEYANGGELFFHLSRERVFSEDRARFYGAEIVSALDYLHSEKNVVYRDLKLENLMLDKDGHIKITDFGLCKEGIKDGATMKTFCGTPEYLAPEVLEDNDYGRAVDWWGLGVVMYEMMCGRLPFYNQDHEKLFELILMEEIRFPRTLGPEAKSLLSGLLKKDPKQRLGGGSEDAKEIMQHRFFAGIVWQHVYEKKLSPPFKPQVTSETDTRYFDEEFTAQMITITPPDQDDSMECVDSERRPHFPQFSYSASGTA
From the text: Biological Assay 1.0: Akt1 Kinase Assay
Akt1 inhibitory activity of compounds of the present invention was quantified employing the Akt1 TR-FRET assay as described in the following paragraphs.
His-tagged human recombinant kinase full-length Akt1 expressed in insect cells was purchased form Invitrogen (part number PV 3599). As substrate for the kinase reaction the biotinylated peptide biotin-Ahx-[sequence] (C-terminus in amide form) was used which can be purchased e.g. from the company Biosynthan GmbH (Berlin-Buch, Germany).
For the assay 50 nl of a 100 fold concentrated solution of the test compound in DMSO was pipetted into a black low volume 384 well microtiter plate (Greiner Bio-One, Frickenhausen, Germany), 2 μl of a solution of Akt1 in assay buffer [50 mM TRIS/HCl pH 7.5, 5 mM MgCl2, 1 mM dithiothreitol, 0.02% (v/v) Triton X-100 (Sigma)] were added and the mixture was incubated for 15 min at 22° C. to allow pre-binding of the test compounds to the enzyme before the start of the kinase reaction. Then the kinase reaction was started by the addition of 3 μl of a solution of adenosine-tri-phosphate (ATP, 16.7 μM=>final conc. in the 5 μl assay volume is 10 μM) and substrate (1.67 μM=>final conc. in the 5 μl assay volume is 1 μM) in assay buffer and the resulting mixture was incubated for a reaction time of 60 min at 22° C. The concentration of Akt1 in the assay was adjusted depending of the activity of the enzyme lot and was chosen appropriate to have the assay in the linear range, typical enzyme concentrations were in the range of about 0.05 ng/μl (final conc. in the 5 μl assay volume). The reaction was stopped by the addition of 5 μl of a solution of HTRF detection reagents (200 nM streptavidine-XL665 [Cisbio] and 1.5 nM anti-phosho-Serine antibody [Millipore, cat. #35-001] and 0.75 nM LANCE Eu-W 1024 labeled anti-mouse IgG antibody [Perkin Elmer]) in an aqueous EDTA-solution (100 mM EDTA, 0.1% (w/v) bovine serum albumin in 50 mM HEPES/NaOH pH 7.5). The resulting mixture was incubated 1 h at 22° C. to allow the binding of the biotinylated phosphorylated peptide to the streptavidine-XL665 and the antibodies. Subsequently the amount of phosphorylated substrate was evaluated by measurement of the resonance energy transfer from the anti-mouse-IgG-Eu-Chelate to the streptavidine-XL665. Therefore, the fluorescence emissions at 620 nm and 665 nm after excitation at 350 nm was measured in a HTRF reader, e.g. a Rubystar (BMG Labtechnologies, Offenburg, Germany) or a Viewlux (Perkin-Elmer). The ratio of the emissions at 665 nm and at 622 nm was taken as the measure for the amount of phosphorylated substrate.

His-tagged human recombinant kinase full-length Akt2, sequence (P31751 whole entry): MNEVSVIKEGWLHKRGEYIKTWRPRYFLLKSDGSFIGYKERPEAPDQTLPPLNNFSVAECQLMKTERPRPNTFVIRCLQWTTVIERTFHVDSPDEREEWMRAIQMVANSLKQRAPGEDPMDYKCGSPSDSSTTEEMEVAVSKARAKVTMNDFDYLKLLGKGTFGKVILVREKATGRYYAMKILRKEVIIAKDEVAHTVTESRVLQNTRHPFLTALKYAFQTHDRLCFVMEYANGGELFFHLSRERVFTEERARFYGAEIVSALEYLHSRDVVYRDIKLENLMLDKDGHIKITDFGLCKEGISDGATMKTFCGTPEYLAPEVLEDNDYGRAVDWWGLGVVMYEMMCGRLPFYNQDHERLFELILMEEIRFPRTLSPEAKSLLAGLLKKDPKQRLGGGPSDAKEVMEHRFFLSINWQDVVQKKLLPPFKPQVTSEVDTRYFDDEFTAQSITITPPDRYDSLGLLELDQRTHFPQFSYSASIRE

Structure (SMILES): CCOc1nn2c(-c3ccccc3)c(-c3ccc(C4(N)CCC4)cc3)nc2c(C)c1C [Example 55, 1-[4-(6-Ethoxy-7,8-dimethyl-3-phenylimidazo[1,2-b]pyridazin-2-yl)phenyl]-cyclobutanamine]
- IC50 [1]: 2000 nM
- IC50 [2]: 1900 nM
- IC50 (phospho-AKT at S473): 680 nM
- IC50 (p-4E-BP1 at T70): 1800 nM

Structure (SMILES): CCc1cc(OC)c2nc(-c3ccc(C4(N)CCC4)cc3)c(-c3ccccc3)n2n1 [Example 13, 1-[4-(6-Ethyl-8-methoxy-3-phenylimidazo[1,2-b]pyridazin-2-yl)phenyl]cyclobutanamine]
- IC50 [1]: 1500 nM
- IC50 [2]: 1100 nM
- IC50 [3]: 42 nM
- IC50 (p-4E-BP1 at T70): 660 nM

Structure (SMILES): Nc1ccnn2c(-c3ccccc3)c(-c3ccc(C4(N)CCC4)cc3)nc12 [Example 48, 2-[4-(1-Aminocyclobutyl)phenyl]-3-phenylimidazo[1,2-b]pyridazin-8-amine]
- IC50 [1]: 1100 nM
- IC50 [2]: 1300 nM
- IC50 (phospho-AKT at S473): 42 nM
- IC50 [3]: 610 nM
- IC50 (p-4E-BP1 at T70): 29 nM

Structure (SMILES): COc1cc(-c2cn[nH]c2)c2nc(-c3ccc(C4(N)CCC4)cc3)c(-c3ccccc3)n2n1 [Example 15, 1-{4-[6-Methoxy-3-phenyl-8-(1H-pyrazol-4-yl)imidazo[1,2-b]pyridazin-2-yl]phenyl} cyclobutanamine HCl salt]
- IC50 [1]: 1800 nM
- IC50 [4]: 4.4 nM
- IC50 [2]: 1800 nM
- IC50 (phospho-AKT at S473): 590 nM
- IC50 (p-4E-BP1 at T70): 1700 nM

Structure (SMILES): CCNC(=O)c1ccc2nc(-c3ccc(C4(N)CCC4)cc3)c(-c3ccccc3)n2n1 [Example 66, 2-[4-(1-Aminocyclobutyl)phenyl]-N-ethyl-3-phenylimidazo[1,2-b]pyridazine-6-carboxamide]
- IC50 [1]: 2500 nM
- IC50 [2]: 980 nM
- IC50 (phospho-AKT at S473): 17 nM

Structure (SMILES): NC1(c2ccc(-c3nc4ccc(C(=O)NCCO)nn4c3-c3ccccc3)cc2)CCC1 [Example 70, 2-[4-(1-Aminocyclobutyl)phenyl]-N-(2-hydroxyethyl)-3-phenylimidazo[1,2-b]pyridazine-6-carboxamide]
- IC50 [1]: 2600 nM
- IC50 [2]: 940 nM
- IC50 (phospho-AKT at S473): 5.7 nM
- IC50 [3]: 110 nM
- IC50 (p-4E-BP1 at T70): 2400 nM

Structure (SMILES): Nc1ccc2nc(-c3ccc(C4(N)CCC4)cc3)c(-c3ccccc3)n2n1 [Example 35, 2-[4-(1-Aminocyclobutyl)phenyl]-3-phenylimidazo[1,2-b]pyridazin-6-amine]
- IC50 [1]: 6100 nM
- IC50 [2]: 3000 nM
- IC50 (phospho-AKT at S473): 190 nM
- IC50 [3]: 1200 nM
- IC50 (p-4E-BP1 at T70): 1700 nM

Structure (SMILES): COc1cc(-c2ccnn2C)c2nc(-c3ccc(C4(N)CCC4)cc3)c(-c3ccccc3)n2n1 [Example 74, 1-{4-[6-Methoxy-8-(1-methyl-1H-pyrazol-5-yl)-3-phenylimidazo[1,2-b]pyridazin-2-yl]phenyl}cyclobutanamine]
- IC50 [1]: 2100 nM
- IC50 [4]: 96 nM
- IC50 [2]: 2000 nM
- IC50 (phospho-AKT at S473): 450 nM

Structure (SMILES): NC1(c2ccc(-c3nc4ccc(C(F)(F)F)nn4c3-c3ccccc3)cc2)CCC1 [Example 3, 1-{4-[3-Phenyl-6-(trifluoromethyl)imidazo[1,2-b]pyridazin-2-yl]phenyl}-cyclobutanamine]
- IC50 [1]: 1700 nM
- IC50 [2]: 1800 nM
- IC50 (phospho-AKT at S473): 360 nM
- IC50 (p-4E-BP1 at T70): 4500 nM

Structure (SMILES): CCOc1cc(C(=O)NC)nn2c(-c3ccccc3)c(-c3ccc(C4(N)CCC4)cc3)nc12 [Example 22, 2-[4-(1-Aminocyclobutyl)phenyl]-8-ethoxy-N-methyl-3-phenylimidazo[1,2-b]pyridazine-6-carboxamide]
- IC50 [1]: 190 nM
- IC50 [4]: 8 nM
- IC50 [2]: 240 nM
- IC50 (phospho-AKT at S473): 0.3 nM
- IC50 (p-4E-BP1 at T70): 23 nM

Structure (SMILES): CN(C)C(=O)c1ccc2nc(-c3ccc(C4(N)CCC4)cc3)c(-c3ccccc3)n2n1 [Example 69, 2-[4-(1-Aminocyclobutyl)phenyl]-N,N-dimethyl-3-phenylimidazo[1,2-b]pyridazine-6-carboxamide]
- IC50 [1]: 10000 nM
- IC50 [4]: 310 nM
- IC50 [2]: 1500 nM
- IC50 (phospho-AKT at S473): 250 nM
- IC50 (p-4E-BP1 at T70): 4400 nM

Structure (SMILES): NC1(c2ccc(-c3nc4c(-c5ccc(F)cc5)ccnn4c3-c3ccccc3)cc2)CCC1 [Example 44, 1-{4-[8-(4-Fluorophenyl)-3-phenylimidazo[1,2-b]pyridazin-2-yl]phenyl}cyclobutanamine]
- IC50 [1]: 2000 nM
- IC50 (phospho-AKT at S473): 800 nM
- IC50 [3]: 310 nM
- IC50 (p-4E-BP1 at T70): 380 nM

Structure (SMILES): NC(=O)c1cc(-c2cc[nH]n2)c2nc(-c3ccc(C4(N)CCC4)cc3)c(-c3ccccc3)n2n1 [Example 60, 2-[4-(1-Aminocyclobutyl)phenyl]-3-phenyl-8-(1H-pyrazol-3-yl)imidazo[1,2-b]pyridazine-6-carboxamide]
- IC50 [1]: 1500 nM
- IC50 [4]: 7.2 nM
- IC50 [2]: 73 nM
- IC50 (phospho-AKT at S473): 1 nM
- IC50 (p-4E-BP1 at T70): 8100 nM

Structure (SMILES): CNC(=O)c1cc(OCC2CC2)c2nc(-c3ccc(C4(N)CCC4)cc3)c(-c3ccccc3)n2n1 [Example 64, 2-[4-(1-Aminocyclobutyl)phenyl]-8-(cyclopropylmethoxy)-N-methyl-3-phenylimidazo[1,2-b]pyridazine-6-carboxamide]
- IC50 [1]: 360 nM
- IC50 [2]: 150 nM
- IC50 (phospho-AKT at S473): 0.9 nM
- IC50 [3]: 12 nM
- IC50 (p-4E-BP1 at T70): 84 nM

Structure (SMILES): CC(=O)c1ccc2nc(-c3ccc(C4(N)CCC4)cc3)c(-c3ccccc3)n2n1 [Example 43, 1-{2-[4-(1-Aminocyclobutyl)phenyl]-3-phenylimidazo[1,2-b]pyridazin-6-yl}ethanone]
- IC50 [1]: 6200 nM
- IC50 [4]: 36 nM
- IC50 [2]: 6700 nM
- IC50 (phospho-AKT at S473): 96 nM
- IC50 (p-4E-BP1 at T70): 1600 nM

Structure (SMILES): NC(=O)c1ccnn2c(-c3ccccc3)c(-c3ccc(C4(N)CCC4)cc3)nc12 [Example 59]
- IC50 (phospho-AKT at S473): 11 nM
- IC50 (p-4E-BP1 at T70): 100 nM

Structure (SMILES): CCCc1ccnn2c(-c3ccccc3)c(-c3ccc(C4(N)CCC4)cc3)nc12 [Example 47, 1-[4-(3-Phenyl-8-propylimidazo[1,2-b]pyridazin-2-yl)phenyl]cyclobutanamine]
- IC50 [1]: 1700 nM
- IC50 [4]: 220 nM
- IC50 [2]: 1100 nM
- IC50 (phospho-AKT at S473): 140 nM
- IC50 (p-4E-BP1 at T70): 96 nM

Structure (SMILES): NC1(c2ccc(-c3nc4ccc(NC(=O)C(F)(F)F)nn4c3-c3ccccc3)cc2)CCC1 [Example 40, N-{2-[4-(1-Aminocyclobutyl)phenyl]-3-phenylimidazo[1,2-b]pyridazin-6-yl}-2,2,2-trifluoroacetamide]
- IC50 [1]: > 10000 nM
- IC50 [2]: 8400 nM
- IC50 (phospho-AKT at S473): 2000 nM
- IC50 (p-4E-BP1 at T70): 6100 nM

Structure (SMILES): COCCOc1cc(C(N)=O)nn2c(-c3ccccc3)c(-c3ccc(C4(N)CCC4)cc3)nc12 [Example 28, 2-[4-(1-Aminocyclobutyl)phenyl]-8-(2-methoxy-ethoxy)-3-phenylimidazo[1,2-b]pyridazine-6-carboxamide]
- IC50 [1]: 1900 nM
- IC50 [2]: 1800 nM
- IC50 (phospho-AKT at S473): 1 nM
- IC50 (p-4E-BP1 at T70): 6.2 nM

Structure (SMILES): NC(=O)c1cc(C(N)=O)c2nc(-c3ccc(C4(N)CCC4)cc3)c(-c3ccccc3)n2n1 [Example 34, 2-[4-(1-Aminocyclobutyl)phenyl]-3-phenylimidazo[1,2-b]pyridazine-6,8-dicarboxamide]
- IC50 [1]: 1100 nM
- IC50 [2]: 330 nM
- IC50 (phospho-AKT at S473): 3.1 nM
- IC50 [3]: 14 nM
- IC50 (p-4E-BP1 at T70): 150 nM

Structure (SMILES): CS(=O)(=O)c1ccc2nc(-c3ccc(C4(N)CCC4)cc3)c(-c3ccccc3)n2n1 [Example 38]
- IC50 [1]: 740 nM
- IC50 [4]: 370 nM
- IC50 [2]: 510 nM
- IC50 (phospho-AKT at S473): 20 nM
- IC50 (p-4E-BP1 at T70): 530 nM

Structure (SMILES): NC1(c2ccc(-c3nc4ccc(-c5ccc(F)cc5)nn4c3-c3ccccc3)cc2)CCC1 [Example 33, 1-{4-[6-(4-Fluorophenyl)-3-phenylimidazo[1,2-b]pyridazin-2-yl]phenyl}cyclobutanamine]
- IC50 [4]: 690 nM
- IC50 (phospho-AKT at S473): 2900 nM

Structure (SMILES): NC1(c2ccc(-c3nc4c(O)ccnn4c3-c3ccccc3)cc2)CCC1 [Example 32, 2-[4-(1-Aminocyclobutyl)phenyl]-3-phenylimidazo[1,2-b]pyridazin-8-ol]
- IC50 (phospho-AKT at S473): 160 nM
- IC50 (p-4E-BP1 at T70): 2200 nM

Structure (SMILES): COC(=O)c1ccnn2c(-c3ccccc3)c(-c3ccc(C4(N)CCC4)cc3)nc12 [Example 31, Methyl 2-[4-(1-aminocyclobutyl)phenyl]-3-phenylimidazo[1,2-b]pyridazine-8-carboxylate]
- IC50 [1]: 8400 nM
- IC50 [2]: 1400 nM
- IC50 (phospho-AKT at S473): 1800 nM
- IC50 [3]: 140 nM
- IC50 (p-4E-BP1 at T70): 4300 nM

Structure (SMILES): CSc1ccc2nc(-c3ccc(C4(N)CCC4)cc3)c(-c3ccccc3)n2n1 [Example 36, 1-{4-[6-(Methylsulfanyl)-3-phenylimidazo[1,2-b]pyridazin-2-yl]phenyl}cyclobutanamine]
- IC50 [1]: 1800 nM
- IC50 [4]: 17 nM
- IC50 [2]: 1700 nM
- IC50 (phospho-AKT at S473): 26 nM
- IC50 (p-4E-BP1 at T70): 1600 nM

Structure (SMILES): NC1(c2ccc(-c3nc4c(C5CC5)cc(Cl)nn4c3-c3ccccc3)cc2)CCC1 [Example 46, 1-[4-(6-Chloro-8-cyclopropyl-3-phenylimidazo [1,2-b]pyridazin-2-yl)phenyl]cyclobutanamine]
- IC50 [1]: 1900 nM
- IC50 [2]: 1500 nM
- IC50 (phospho-AKT at S473): 430 nM
- IC50 [3]: 85 nM
- IC50 (p-4E-BP1 at T70): 300 nM

Structure (SMILES): COC(=O)c1cc(OC)c2nc(-c3ccc(C4(N)CCC4)cc3)c(-c3ccccc3)n2n1 [Example 12, Methyl 2-[4-(1-aminocyclobutyl)phenyl]-8-methoxy-3-phenylimidazo[1,2-b]pyridazine-6-carboxylate]
- IC50 [1]: 2000 nM
- IC50 [4]: 21 nM
- IC50 [2]: 1800 nM
- IC50 (phospho-AKT at S473): 52 nM
- IC50 (p-4E-BP1 at T70): 260 nM

Structure (SMILES): NC1(c2ccc(-c3nc4c(-c5ncc[nH]5)cc(Cl)nn4c3-c3ccccc3)cc2)CCC1 [Example 24, 1-{4-[6-Chloro-8-(1H-imidazol-2-yl)-3-phenyl-imidazo[1,2-b]pyridazin-2-yl]phenyl} cyclobutanamine]
- IC50 [1]: 1700 nM
- IC50 [4]: 35 nM
- IC50 [2]: 1800 nM
- IC50 (phospho-AKT at S473): 200 nM
- IC50 (p-4E-BP1 at T70): 500 nM
